# Measured values as given in patent US9763966B2, “Fluocinolone formulations in a biodegradable polymer carrier” (Warsaw Orthopedic, Inc., priority 2008, dated 2017).
# Columns and labels:
# [1] = test system: inflammatory response; assay: Implant-site observation: resorption of foreign material and encapsulation (FIGS. 9 and 10); assay type: in vivo; conditions: picture
# From the text: FIG. 10 is a picture of fluocinolone implants 20 wt % 85/15 PLGA+10% mPEG and 1% wt fluocinolone 100 DL 7E+5% PEG/7% 50/50 PLGA 7A. The foreign and inflammatory material was not resorbed due to lack of inflammatory response mediated by fluocinolone implants.
# [2] = test system: chronic constriction injury (CCI) model of neuropathic pain; assay: 2-month chronic constriction injury (CCI) model: mechanical threshold and thermal paw withdrawal latency; assay type: in vivo; conditions: compared with the fluocinolone implants
# Experimental: A 2-month chronic constriction injury (CCI) model of neuropathic pain was used to evaluate different formulations of a corticosteroid, fluocinolone, encapsulated in bioerodable polymers compared to fluocinolone given subcutaneously (SC). Different formulations as provided in Table B below were evaluated for reducing pain-associated behaviors: Thermal paw withdrawal latency was evaluated at baseline 7, 14, 21, 28, 35, 42, 49, and 56 days post-operatively, while mechanical threshold was evaluated at 8, 15, 22, 29, 36, 43, 50, and 57 days post-operatively.
# There were seven groups of animals tested. […]
# Mechanical allodynia was measured using von Frey monofilaments (Stoelting, Wood Dale, Ill.) with varying stiffness (2.0-15.0 g) on Days 1, 8, 15, 22, 29, 36, 43, 50 and 57 as described previously (see FIGS. 5-6). […] The 50% paw withdrawal threshold response was determined by a sequential increasing and/or decreasing of the stimulus strength (the “up-down method” of Dixon). […] The 50% paw withdrawal threshold was calculated using the formula: 10 (Xf+kd)/10,000, where Xf is the final von Frey filament used (log units), k is a value that analyzes the response pattern (taken from the table published by Chaplan et al.), and d is the mean difference between stimuli (log units). The mean and standard error of the mean (SEM) were determined for each treatment group.
smiles,measurement,setting,value
CC1=C(CC(=O)O)c2cc(F)ccc2/C1=C\c1ccc([S+](C)[O-])cc1 (stereo not drawn) [sulindac],encapsulation of implant,[1],did not prevent encapsulation
same,resorption of foreign and inflammatory material (sutures),[1],resorbed
same,pain control response,[2],very similar pain control response
